{
  "source": "patent US7981878B2",
  "about": "“Tumor treatment with gliotoxin derivatives” (priority 2005, dated 2011)",
  "key": {"Notch2 [1]": {"molecular_target": "T1, Notch2 (Homo sapiens, UniProt Q04721)", "T1 construct": "endogenous in cells; host or cells: PBMCs from healthy donors, with or without TPA", "T1 sequence (Q04721 1697-2471 limits assumed)": "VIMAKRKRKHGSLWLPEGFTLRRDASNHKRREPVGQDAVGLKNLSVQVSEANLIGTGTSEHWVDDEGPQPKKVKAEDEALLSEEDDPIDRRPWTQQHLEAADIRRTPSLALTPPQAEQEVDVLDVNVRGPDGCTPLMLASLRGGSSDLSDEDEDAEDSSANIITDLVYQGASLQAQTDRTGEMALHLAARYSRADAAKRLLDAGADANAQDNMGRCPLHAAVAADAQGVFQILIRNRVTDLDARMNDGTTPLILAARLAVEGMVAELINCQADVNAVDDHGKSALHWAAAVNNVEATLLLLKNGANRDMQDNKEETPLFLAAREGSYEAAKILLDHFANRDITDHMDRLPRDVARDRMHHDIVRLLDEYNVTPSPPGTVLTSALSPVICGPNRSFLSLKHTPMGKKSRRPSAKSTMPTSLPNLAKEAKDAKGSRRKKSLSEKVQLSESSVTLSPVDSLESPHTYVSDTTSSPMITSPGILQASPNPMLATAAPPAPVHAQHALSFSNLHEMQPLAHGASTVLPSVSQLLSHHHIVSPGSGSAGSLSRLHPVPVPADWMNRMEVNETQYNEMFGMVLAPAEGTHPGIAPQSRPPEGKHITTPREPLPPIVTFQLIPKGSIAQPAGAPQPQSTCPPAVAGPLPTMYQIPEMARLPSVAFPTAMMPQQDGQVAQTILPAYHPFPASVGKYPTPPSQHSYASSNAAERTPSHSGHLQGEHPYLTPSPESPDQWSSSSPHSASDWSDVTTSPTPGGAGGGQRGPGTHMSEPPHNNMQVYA", "experiment": "Notch2 activity in PBMCs from healthy donors by EMSA", "assay_type": "cell-based", "conditions": "TPA-stimulated PBMCs, 0.2 μM gliotoxin, 4 hours", "protocol": "FIG. 4: Gliotoxin induces apoptosis in unstimulated as well as in TPA-stimulated B-CLL cells within 4 hours. Normal PBMCs (peripheral blood mononuclear cells) from healthy donors show a markedly lower Notch2 activity. Although gliotoxin inhibits Notch2 also in normal, TPA-stimulated cells, the gliotoxin-caused apoptosis rate is markedly lower in normal cells as compared to B-CLL cells. Non-stimulated and TPA stimulated PBMC's from healthy donors (HD) are less sensitive to 0.2 μM Gliotoxin despite a basal Notch2 activity. PBMC's and CLL cells were incubated with 0.2 μM Gliotoxin with or without TPA for 4 hours and the Notch2 activity as well as the percentage of apoptotic cells were determined by EMSA and FACS analysis, respectively.\nAfter 4 hours of gliotoxin treatment, massive signs of the starting apoptosis (AnnexinV+) could already be recognized in B-CLL cells. This effect was increased by TPA (a phorbol ester which stimulates the activation of lymphocytes)."}, "Jurkat (T-ALL)": {"system": "Jurkat (T-ALL)", "experiment": "Apoptosis FACS in leukaemia cell line Jurkat", "assay_type": "cell-based", "conditions": "0.2 μM gliotoxin, 24 h", "protocol": "(§1) FIG. 7: (A) The apoptotic activity of gliotoxin on further B-CLL patient samples (CLL4-CLL8) is illustrated. The (non-Notch2-associated) leukaemia cell lines (or the leukaemia cell lines not characterised by ligand-independent Notch2 fragments) Jurkat (T-ALL), SH1 (hairy cell carcinoma), RL-7 and K562 (CML) are resistant to a treatment with 0.2 μM (corresponding to 60 ng/ml) of gliotoxin. Cells were incubated for 24 h+/−gliotoxin, and the percentage of apoptotic cells (probidium-iodide+/annexinV+) was determined by means of FACS analysis. In none of the 4 non-Notch2-associated cell lines indicated, the application of 0.2 μM of gliotoxin led to a significant induction of apoptosis within 24 hours. The cytotoxic effect of Gliotoxin correlates with the Notch2 activity in leukemias. (B) Corresponding EMSA showing the activity of Notch2 in B-CLL cells and in leukemic cell lines (Jurkat, SH1, RL7, and K562)."}, "[2]": {"system": "SH1 (hairy cell carcinoma)", "experiment": "Apoptosis FACS in leukaemia cell line SH1", "assay_type": "cell-based", "conditions": "SH1, 0.2 μM gliotoxin, 24 h", "protocol": "as §1"}, "[3]": {"system": "Huh7 (hepatocellular carcinoma)", "experiment": "Cell count analysis Huh7", "assay_type": "cell-based, human", "conditions": "Huh7, 200 nM gliotoxin, 72 h", "protocol": "(§2) FIG. 8 a-d: Effects of gliotoxin on cell counts of various human tumour cell lines in vitro. Cell counts of a) hepatocellular carcinoma cell lines HepG2, Huh7, SNU398, Hep3b, HeLa (cervix) and the cholangiocarcinoma cell line NEC as well as b) the pancreatic cancer cell line Panc-1 and the melanoma cell lines d) MelJuso, Meljuso-Bcl-2 (+) and 607B after 72 h treatment with 200 nM gliotoxin; c-d) Cell count dose range experiments with c) pancreatic carcinoma cell lines Panc-1 and MiaPaCa as well as melanoma cell lines MelJuso, 518A2 and 607B using 25, 50 100 and 200 nM gliotoxin for 24 h. All data are given relative to control ±standard deviation.\n(§3) Tumour cells were seeded at a density of 10,000 cells/well in 24-well plates. 24 h after seeding, medium containing gliotoxin was added to yield desired concentrations of gliotoxin. At time points indicated, culture medium was removed by suction. Adherent cells were washed with DPBS (Cambrex, Verviers, Belgium) and incubated with trypsin (Gibco) at 37° C. Detached cells were transferred to test tubes containing Cellpack isotonic fluid (Sysmex Europe, Bornbarch, Germany) and counted with a Coulter Z1 electronic cell counter (Beckman Coulter, Bedford, UK)."}, "[4]": {"system": "Meljuso-Bcl-2 (+) (Bcl-2 over expressing melanoma cell line)", "experiment": "Cell count analysis Meljuso-Bcl-2 (+)", "assay_type": "cell-based, human", "protocol": "as §2, §3"}, "[5]": {"system": "Panc-1 (pancreas carcinoma)", "experiment": "Cell count analysis Panc-1", "assay_type": "cell-based, human", "protocol": "as §2, §3"}, "607B (melanoma)": {"system": "607B (melanoma)", "experiment": "Cell count analysis 607B", "assay_type": "cell-based, human", "protocol": "as §2, §3"}, "518A2 (melanoma)": {"system": "518A2 (melanoma)", "experiment": "Apoptosis flow cytometry (Annexin V / 7-AAD) 518A2", "assay_type": "cell-based, human", "conditions": "518A2, 200 nM gliotoxin, 24 h", "protocol": "(§4) FIG. 10 a-b: Effects of gliotoxin on Notch2 regulation and apoptosis. The melanoma cell line 518A2 (A) and the pancreatic cancer cell line Panc-1 (B) were treated with 200 nM gliotoxin or vehicle control for 24 h Notch2 activity was analysed by band shift assay. Apoptosis was measured as annexin V and 7-AAD double positivity by FACS. Data are given as percentage of apoptotic cells ±standard deviation.\nTumour cells were seeded at a density of 50,000 cells/well in 6 well plates. 24 h after seeding, medium containing gliotoxin was added to yield desired concentrations of gliotoxin. After further 24 h cells were harvested, counted and washed twice with PBS. Then, 100,000 cells were resuspended in 100 μl binding buffer and stained with Annexin V-PE and 7-AAD (both Becton Dickinson, N.J., USA) according to manufacturer's recommendations. After 20 minutes incubation time at room temperature in the dark, 400 μl binding buffer was added and immediately analyzed on a FACScalibur flow cytometer using CellQuest software (both Becton Dickinson, N.J., USA)"}, "Notch2 [6]": {"system": "Notch2", "experiment": "Notch2 activity band shift assay in 518A2", "assay_type": "cell-based, human", "conditions": "518A2, 200 nM gliotoxin, maximum at 24 h", "protocol": "as §4\n(§5) 500,000 cells were seeded on 12 cm^2 plates for 24 h and then treated with 200 nM gliotoxin. At the time points as indicated cells were harvested and immediately frozen at −80° C. The band shift assay was performed as described for B-CLL."}, "Notch2 [7]": {"system": "Notch2", "experiment": "Notch2 activity band shift assay in Panc-1", "assay_type": "cell-based, human", "conditions": "Panc-1, 200 nM gliotoxin, 24 h", "protocol": "as §4, §5"}, "[8]": {"conditions": "mice and rats; cited from earlier work"}, "[9]": {"system": "cultures from animal cells", "conditions": "cited from earlier work"}, "[10]": {"system": "B1 B-cells (LPS responder)", "conditions": "mice, single administration of 100 μg of gliotoxin; cited from earlier work"}, "mouse cell line P388": {"system": "mouse cell line P388", "conditions": "cited from earlier work"}},
  "data": [
    {"compound": "CN1C(=O)[C@]23CC4=CC=C[C@H](O)[C@H]4N2C(=O)[C@@]1(CO)SS3", "note": "[gliotoxin, [3R-(3α,5aβ,6β,10aα)]-2,3,5a,6-tetrahydro-6-hydroxy-3-(hydroxymethyl)-2-methyl-10H-3,10a-epi-dithiopyrazino[1,2-a]indol-1,4-dion]", "values": [
      {"measurement": "physiologic Notch2 activity (EMSA)", "setting": "Notch2 [1]", "value": "marked reduction"},
      {"measurement": "induction of apoptosis (probidium-iodide+/annexinV+)", "setting": "Jurkat (T-ALL)", "value": "resistant"},
      {"measurement": "induction of apoptosis (probidium-iodide+/annexinV+)", "setting": "[2]", "value": "resistant"},
      {"measurement": "mean reduction of cell numbers compared to vehicle treated controls", "setting": "[3]", "value": 31, "unit": "%"},
      {"measurement": "response", "setting": "[4]; MelJuso +BCL2, 0.2 μM (60 ng/ml)", "value": "~100", "unit": "%"},
      {"measurement": "cell count decrease", "setting": "[4]; Meljuso-Bcl-2 (+), 200 nM gliotoxin, 72 h", "value": 94, "unit": "%"},
      {"measurement": "response", "setting": "[5]; Panc-1, 0.2 μM (60 ng/ml)", "value": "~100", "unit": "%"},
      {"measurement": "effect on cell count", "setting": "[5]; Panc-1, 200 nM gliotoxin, 72 h", "value": "very effective"},
      {"measurement": "cytotoxicity in dose range experiment (cell count)", "setting": "[5]; Panc-1, 25, 50, 100 and 200 nM, 24 h", "value": "clear dose dependent cytotoxicity"},
      {"measurement": "effect on cell count", "setting": "607B (melanoma); 607B, 200 nM gliotoxin, 72 h", "value": "very effective"},
      {"measurement": "cytotoxicity in dose range experiment (cell count)", "setting": "607B (melanoma); 607B, 25, 50, 100 and 200 nM, 24 h", "value": "clear dose dependent cytotoxicity"},
      {"measurement": "apoptotic cells (annexin V and 7-AAD double positive)", "setting": "518A2 (melanoma)", "value": 92, "unit": "%"},
      {"measurement": "Notch-2 activity (band shift assay)", "setting": "Notch2 [6]", "value": "time dependent down regulation"},
      {"measurement": "Notch2 activity (band shift assay)", "setting": "Notch2 [7]", "value": "only partly inhibited"},
      {"measurement": "LD50", "setting": "[8]", "value": "25 to 50", "unit": "mg/kg"},
      {"measurement": "concentration at which the effect changes towards necrosis", "setting": "[9]", "value": "more than 10 μM"},
      {"measurement": "concentration for complete necrosis of the cell cultures", "setting": "[9]", "value": "≥ 50", "unit": "µM"},
      {"measurement": "effect on B1 B-cells (LPS responder)", "setting": "[10]", "value": "complete loss of B1 B-cells"},
      {"measurement": "IC50 with regard to cell viability", "setting": "mouse cell line P388", "value": "5,8 ng/ml"}
    ]}
  ]
}
